pIC50: −log10 of the molar value. Where two headings read alike, the source gives them in different places.

This assay addresses T1, human recombinant COX2 (hCOX2) (UniProt P35354).
T1 sequence (P35354 1-604): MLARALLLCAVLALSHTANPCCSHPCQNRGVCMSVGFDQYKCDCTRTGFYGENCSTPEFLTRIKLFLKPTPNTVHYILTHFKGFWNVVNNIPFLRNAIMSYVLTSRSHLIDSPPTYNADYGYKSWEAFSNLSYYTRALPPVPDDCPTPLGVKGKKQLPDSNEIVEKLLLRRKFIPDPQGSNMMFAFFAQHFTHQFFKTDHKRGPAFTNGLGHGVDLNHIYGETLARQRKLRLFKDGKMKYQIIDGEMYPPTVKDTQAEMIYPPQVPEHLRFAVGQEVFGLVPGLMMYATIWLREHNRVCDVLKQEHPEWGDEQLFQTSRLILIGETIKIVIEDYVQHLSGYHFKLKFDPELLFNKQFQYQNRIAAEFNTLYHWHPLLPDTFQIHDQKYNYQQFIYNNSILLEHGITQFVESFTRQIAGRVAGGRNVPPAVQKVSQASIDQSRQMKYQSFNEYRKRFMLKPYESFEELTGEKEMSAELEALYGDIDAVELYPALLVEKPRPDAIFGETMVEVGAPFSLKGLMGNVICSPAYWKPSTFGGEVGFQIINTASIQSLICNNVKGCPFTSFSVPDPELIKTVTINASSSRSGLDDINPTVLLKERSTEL
The experiment in a line: LCMS-based COX2 enzymatic inhibition assay (PGE2 quantification). As to conditions: for pIC50: average. Set-up: COX2 2 minutes pge2/pge2d4 area ratio Avg; other: 2 minutes; readout pge2/pge2d4 area ratio; average; COX2 2 minutes pge2/pge2d4 area ratio Avg; LLE; average LLE; COX2 2 minutes pge2 area (counts) Avg; readout pge2 area (counts); other: 2 min; "ovine COX2 (oCOX2), human recombinant COX2 (hCOX2)". Format: biochemical. How it is done:
We have adapted a previously reported cyclooxygenase enzymatic assay utilizing LCMS quantification of PGE2 as the product of COX-1 and COX2 catalyzed conversion of arachidonic acid to evaluate the binding properties of newly synthesized ligands [Cao, 2011]. These optimized and miniaturized (384-well plates) LCMS-based COX-1 and COX2 enzymatic assays enabled us to quickly evaluate newly synthesized ligands for COX2 binding affinity and selectivity vs COX-1. Using a shorter ligand-enzyme incubation time in the LCMS assay (2 minutes vs 10 minutes) also permitted us to prioritize ligands with faster binding kinetics. Considering the relatively slow on-rate kinetics of known coxibs, due to their 3-step binding mechanism [Marnett, 2009], we believe that optimizing this critical parameter will be key to the successful development of a COX2 PET tracer. Using these enzymatic assays, we have evaluated>200 newly synthesized ligands against COX2 and >20 ligands against COX-1. Another critical property necessary for a good PET radiotracer is to have low non-specific binding (NSB) to increase the free fraction and maximize the signal to noise ratio. This property can be evaluated using in-vitro protein binding assays, and we have now evaluated>50 newly synthesized ligands in mouse, rat and human plasma protein binding (PPB) assays as well as >15 ligands in a mouse brain protein binding (BPB) assay.
Ovine COX-1 (oCOX-1), ovine COX2 (oCOX2), human recombinant COX2 (hCOX2), arachidonic acid, PGE2, d4-PGD2, and […] (labeled with deuterium atoms at positions 3 and 4) were purchased from Cayman Chemicals (Ann Arbor, Mich.). The cofactors (−)epinephrine and hematin, and the COX inhibitors indomethacin, resveratrol and diclofenac were purchased from Sigma-Aldrich (St. Louis, Mo.). Celecoxib was purchased from 3B PharmaChem International (Wuhan, China). All organic solvents were HPLC grade or better and were purchased from Thermo Fisher (Hanover Park, Ill.). Formic acid was purchased from EMD Chemicals (San Diego, Calif.). Purified water was prepared by using a Millipore Milli-Q purification system (Millipore, Billerica, Mass.). All other chemicals and solvents were ACS reagent grade, unless stated otherwise.
In an Eppendorf tube, 146 μL of 100 mM Tris.HCl (pH 8.0) buffer, 2 μL of 100 μM hematin (co-factor) and 10 μL of 40 mM L-epinephrine (co-factor) were mixed at room temperature. Next, 20 μL of Tris.HCl (pH 8.0) buffer containing 0.2 μg COX2 or 0.1 μg COX-1 (approximately 1 unit of enzyme; 1 unit COX utilizes 1 nmol 02/mg/min at 37° C.) was added, and the solution was incubated at room temperature for 2 min. A 2 μL aliquot of the COX inhibitor in DMSO was added to the enzyme solution and preincubated at 37° C. for 10 min. Negative controls were identical except that 2 μL aliquots of DMSO without inhibitor were used instead.
Each COX reaction was initiated by adding 20 μL of arachidonic acid in Tris.HCl (pH 8.0) buffer to give a final concentration of 5 μM; and the reaction was terminated after 2 min by adding 20 μL of 2.0 M HCl. The surrogate standards d4-PGE2 and d4-PGD2 (10 μL aliquot of 50 ng/mL solution in methanol) were added to correct for errors or degradation during sample handling and for variation in injection volume or instrument response during LC-MS-MS. After 30 min, PGE2, PGD2 and their surrogate standards were extracted from each incubation mixture using 800 μL hexane/ethyl acetate (50:50, v/v). The organic phase was removed, evaporated to dryness, and reconstituted in 100 μL methanol/water (50:50, v/v) for analysis using LC-MS-MS.
The concentration of PGE2 in each sample was measured using LC-MS-MS, and the percent of COX inhibition by each test solution was determined by comparing the amount of PGE2 produced in the experiment with that produced in the negative control incubation. The formation of PGD2 was measured for quality control purposes, since the levels of PGD2 should be proportional to those of PGE2. […]

The mark [1] stands for this setting: 2 minutes, readout pge2/pge2d4 area ratio, average LLE.
[2] abbreviates: 2 minutes, readout pge2/pge2d4 area ratio, read-out: COX2 2 minutes pge2/pge2d4 area ratio Avg. IC50.
[3] abbreviates: 2 minutes, readout pge2 area (counts), average LLE.
[4] abbreviates: 2 minutes, readout pge2 area (counts), read-out: COX2 2 minutes pge2 area (counts) Avg. IC50.
[5] abbreviates: 10 minutes, readout pge2 area (counts), average LLE.
The mark [6] stands for this setting: 10 minutes, readout pge2 area (counts), read-out: COX2 10 minutes pge2 area (counts) Avg. IC50.

Consider `NS(=O)(=O)c1ccc(-c2cncc(NCc3cccs3)n2)cc1` [Compound 106], for which the “COX2 2 minutes pge2/pge2d4 area ratio Avg. LLE” value under setting [1] was found to be 5.5926. Also, the pIC50 by setting is: under setting [2], 7.04; under setting [4], 7.18. For the same molecule, under setting [3], the “COX2 2 minutes pge2 area (counts) Avg. LLE” value (“COX2 2 minutes pge2 area” below) is on record as 5.699.

For the molecule `COc1ncc(NCc2nccs2)nc1-c1ccc(S(C)(=O)=O)cc1` [Compound 107], the “COX2 2 minutes pge2/pge2d4 area ratio Avg. LLE” value under setting [1] is 4.932. For the same molecule, the pIC50 is 7.03 under setting [2] and 7.05 under setting [4]. Under setting [3], the “COX2 2 minutes pge2 area” value is 4.948.

Consider `Cn1ccc(CNc2cccc(-c3ccc(S(C)(=O)=O)cc3)n2)c1` [Compound 108], for which, under setting [1], the “COX2 2 minutes pge2/pge2d4 area ratio Avg. LLE” value came out at 3.847. Besides, the pIC50 is, setting by setting: under setting [2], 7.02; under setting [4], 7.10. Under setting [3], the “COX2 2 minutes pge2 area” value is recorded as 3.926.

Take `C[C@H](Nc1cncc(-c2ccc(S(C)(=O)=O)cc2)n1)c1cccs1` [Compound 109]: under setting [1], the “COX2 2 minutes pge2/pge2d4 area ratio Avg. LLE” value came to 4.384. Moreover, the pIC50 is 7.01 under setting [2], 7.10 under setting [4] and 7.88 under setting [6]. Further, the “COX2 2 minutes pge2 area” value under setting [3] is on record as 4.487. Moreover, the “COX2 10 minutes pge2 area (counts) Avg. LLE” value under setting [5] came out at 5.297.

As to `CS(=O)(=O)c1ccc(-c2cncc(NCc3ccoc3)n2)cc1` [Compound 110], the “COX2 2 minutes pge2/pge2d4 area ratio Avg. LLE” value under setting [1] amounted to 5.411. In addition, the pIC50 under setting [2] was 7.01 and the pIC50 under setting [4] was 7.03. For the same molecule, the “COX2 2 minutes pge2 area” value under setting [3] stood at 5.451.

For `CS(=O)(=O)c1ccc(-c2cnc3ccn(Cc4cccs4)c3c2)cc1` [Compound 111], the “COX2 2 minutes pge2/pge2d4 area ratio Avg. LLE” value under setting [1] is listed as 2.294. Further, the pIC50 was 7.00 under setting [2] and 6.95 under setting [4]. Moreover, the “COX2 2 minutes pge2 area” value under setting [3] stood at 2.242.

Take `CS(=O)(=O)c1ccc(-c2cccc(NCc3ccoc3)n2)cn1` [Compound 113]: the “COX2 2 minutes pge2/pge2d4 area ratio Avg. LLE” value under setting [1] is listed as 4.956. For the same molecule, the pIC50 under setting [2] is 6.99 and the pIC50 under setting [4] was 6.91. For the same molecule, the “COX2 2 minutes pge2 area” value under setting [3] is 4.897.

Take `CS(=O)(=O)c1ccc(-c2cnnc(NCc3cccs3)n2)cc1` [Compound 114]: under setting [1], the “COX2 2 minutes pge2/pge2d4 area ratio Avg. LLE” value was 5.0904. The pIC50 runs as follows: under setting [2], 6.98; under setting [4], 6.88. Moreover, the “COX2 2 minutes pge2 area” value under setting [3] worked out at 5.034.

Turning to `Cc1ccc(CNc2cccc(-c3ccc(S(C)(=O)=O)cc3)n2)o1` [Compound 117], under setting [1], the “COX2 2 minutes pge2/pge2d4 area ratio Avg. LLE” value is given as 4.029. The pIC50 reads like this: under setting [2], 6.96; under setting [4], 7.21. The “COX2 2 minutes pge2 area” value under setting [3] was 4.185.

For the molecule `CS(=O)(=O)c1ccc(-c2cnc(C(F)(F)F)c(OCc3cccs3)n2)cc1` [Compound 118], the “COX2 2 minutes pge2/pge2d4 area ratio Avg. LLE” value under setting [1] is recorded as 3.641. Also, the pIC50 is 6.94 under setting [2] and 6.82 under setting [4]. Further, under setting [3], the “COX2 2 minutes pge2 area” value is on record as 3.56.

As for `Cc1ncc(OCc2cccs2)nc1-c1ccc(S(C)(=O)=O)cc1` [Compound 119], under setting [1], the “COX2 2 minutes pge2/pge2d4 area ratio Avg. LLE” value was determined as 4.695. Further, the pIC50 runs as follows: under setting [2], 6.93; under setting [4], 6.63. Besides, under setting [3], the “COX2 2 minutes pge2 area” value is listed as 4.215.

Consider `CS(=O)(=O)c1ccc(-c2ccc3c(n2)N(Cc2cccs2)CC3)cc1` [Compound 121], for which the pIC50 by setting is: under setting [2], 6.92; under setting [4], 6.91.

Turning to `CS(=O)(=O)c1ccc(-n2ccc3ccc(OCc4cccs4)nc32)cc1` [Compound 122], the “COX2 2 minutes pge2/pge2d4 area ratio Avg. LLE” value under setting [1] is listed as 2.212. For the same molecule, the pIC50 under setting [2] is 6.90 and the pIC50 under setting [4] is 7.02. For the same molecule, under setting [3], the “COX2 2 minutes pge2 area” value is reported as 2.325.

Turning to `COc1cnc(-c2ccc(S(C)(=O)=O)cc2)nc1OCc1cccs1` [Compound 123], under setting [1], the “COX2 2 minutes pge2/pge2d4 area ratio Avg. LLE” value was found to be 3.569. Moreover, the pIC50 was 6.88 under setting [2] and 6.92 under setting [4]. Also, the “COX2 2 minutes pge2 area” value under setting [3] amounted to 3.5904.

Consider `Cc1ccc(COc2cncc(-c3ccc(S(C)(=O)=O)cc3)n2)s1` [Compound 124], for which the pIC50 runs as follows: under setting [2], 6.86; under setting [4], 6.91.

`CS(=O)(=O)c1ccc(-n2ccc3ccc(NCc4ccco4)nc32)cc1` [Compound 125]: under setting [1], the “COX2 2 minutes pge2/pge2d4 area ratio Avg. LLE” value was 3.017. Besides, the pIC50 is, setting by setting: under setting [2], 6.85; under setting [4], 6.76. Also, the “COX2 2 minutes pge2 area” value under setting [3] was 2.953.

In the case of `CS(=O)(=O)c1ccc(-n2ccc3ncc(NCc4cccs4)nc32)cc1` [Compound 126], under setting [1], the “COX2 2 minutes pge2/pge2d4 area ratio Avg. LLE” value came out at 3.568. Further, the pIC50 is 6.85 under setting [2] and 6.91 under setting [4]. Also, the “COX2 2 minutes pge2 area” value under setting [3] is 3.634.

Consider `CS(=O)(=O)c1ccc(-c2cncc(NCc3cccs3)n2)nc1` [Compound 127], for which the “COX2 2 minutes pge2/pge2d4 area ratio Avg. LLE” value under setting [1] worked out at 6.121. Moreover, the pIC50 by setting is: under setting [2], 6.84; under setting [4], 6.77. In addition, the “COX2 2 minutes pge2 area” value under setting [3] worked out at 6.077.

For `COc1ncc(NCc2cccs2)nc1-c1ccc(S(C)(=O)=O)cn1` [Compound 128], the “COX2 2 minutes pge2/pge2d4 area ratio Avg. LLE” value under setting [1] was 5.784. Further, the pIC50 under setting [2] was 6.84 and the pIC50 under setting [4] was 6.86. Moreover, the “COX2 2 minutes pge2 area” value under setting [3] amounted to 5.809.

On to `CS(=O)(=O)c1ccc(-c2cc(C(F)(F)F)nc(Oc3ccc(F)cc3)n2)cc1` [Compound 130], for which the “COX2 2 minutes pge2/pge2d4 area ratio Avg. LLE” value under setting [1] turned out to be 2.661. Also, the pIC50 runs as follows: under setting [2], 6.82; under setting [4], 6.68; under setting [6], 8.03; (30 minutes, readout pge2 area (counts), read-out: COX2 30 minutes pge2 area (counts) Avg. IC50) 9.62. In addition, the “COX2 2 minutes pge2 area” value under setting [3] is given as 2.626. Besides, under setting [5], the “COX2 10 minutes pge2 area (counts) Avg. LLE” value is 4.116. For the setting “30 minutes, readout pge2 area (counts), average LLE”, the “COX2 30 minutes pge2 area (counts) Avg. LLE” value was found to be 5.42.

The values are drawn from US20220348590A1, “CYCLOOXYGENASE-2 INHIBITORS AND USES THEREOF” (The Board Institute, Inc., priority 2019, published 2022).
